Measured values from ChEMBL document CHEMBL1909046, “DrugMatrix in vitro pharmacology data”.

Assays:
[1] = biological target: T1, Substance-K receptor (Homo sapiens, UniProt P21452); type: cell membranes, CHO, Membrane; settings: cho; note: in other assays of this panel Not Active means under 50% inhibition at 10 µM
T1 sequence (P21452 whole entry): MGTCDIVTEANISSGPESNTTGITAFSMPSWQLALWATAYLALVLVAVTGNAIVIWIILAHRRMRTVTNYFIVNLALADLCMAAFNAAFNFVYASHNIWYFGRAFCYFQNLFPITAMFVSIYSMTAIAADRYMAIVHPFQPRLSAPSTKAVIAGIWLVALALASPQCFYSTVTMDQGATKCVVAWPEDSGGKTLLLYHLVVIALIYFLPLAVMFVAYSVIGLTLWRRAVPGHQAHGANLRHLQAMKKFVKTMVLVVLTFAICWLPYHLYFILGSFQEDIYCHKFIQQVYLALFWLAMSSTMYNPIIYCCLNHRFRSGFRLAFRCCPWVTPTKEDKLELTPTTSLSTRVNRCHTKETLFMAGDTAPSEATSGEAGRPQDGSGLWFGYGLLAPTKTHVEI

[2] = biological target: Carbonic anhydrase 2 (Homo sapiens, UniProt P00918); test: DRUGMATRIX: Carbonic Anhydrase II enzyme inhibition (substrate: 4-Nitrophenyl acetate (4-NPA)); type: tissue-based, Erythrocyte; settings: erythrocyte; Not Active = under 50% inhibition at 10 µM
[3] = biological target: T2, Endothelin-1 receptor (Homo sapiens, UniProt P25101); type: cell membranes, Membrane; settings: cho-k1; note: in other assays of this panel Not Active means under 50% inhibition at 10 µM
T2 sequence (P25101 whole entry): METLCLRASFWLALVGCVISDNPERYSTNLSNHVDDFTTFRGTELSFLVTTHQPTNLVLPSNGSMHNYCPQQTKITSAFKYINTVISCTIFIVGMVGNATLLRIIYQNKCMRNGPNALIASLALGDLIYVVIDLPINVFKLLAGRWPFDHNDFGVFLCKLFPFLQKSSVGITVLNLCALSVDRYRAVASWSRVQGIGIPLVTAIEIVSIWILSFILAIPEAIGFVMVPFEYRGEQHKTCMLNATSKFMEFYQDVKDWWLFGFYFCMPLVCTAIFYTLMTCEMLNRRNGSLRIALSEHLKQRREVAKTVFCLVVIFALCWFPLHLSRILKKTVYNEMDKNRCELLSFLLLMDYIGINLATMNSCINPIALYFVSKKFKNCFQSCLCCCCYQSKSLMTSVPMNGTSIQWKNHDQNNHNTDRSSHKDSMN

[4] = biological target: T3, Leukotriene C4 synthase (Cavia porcellus, UniProt A6XA80); type: tissue-based, Lung;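 note: enzyme inhibition assay of leukotriene C4 synthase, using LTA4 as the substrate; in other assays of this panel Not Active means under 50% inhibition at 10 µM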
T3 sequence (A6XA80 whole entry): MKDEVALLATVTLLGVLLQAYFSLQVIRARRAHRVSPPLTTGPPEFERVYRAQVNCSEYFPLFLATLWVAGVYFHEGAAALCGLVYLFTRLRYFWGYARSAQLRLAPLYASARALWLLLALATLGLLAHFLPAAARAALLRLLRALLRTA

[5] = biological target: Delta-type opioid receptor (Homo sapiens, UniProt P41143); type: cell membranes, HEK293, Membrane; settings: hek293; note: in other assays of this panel Not Active means under 50% inhibition at 10 µM
[6] = biological target: Tyrosine-protein kinase Lck (Homo sapiens, UniProt P06239); test: DRUGMATRIX: Protein Tyrosine Kinase, LCK enzyme inhibition (substrate: Poly(Glu:Tyr)); type: cell-based, Insect cells; settings: insect cells; Not Active = under 50% inhibition at 10 µM
[7] = biological target: T4, Glucocorticoid receptor (Homo sapiens, UniProt P04150); settings: hela s3; note: in other assays of this panel Not Active means under 50% inhibition at 10 µM
T4 sequence (P04150 whole entry): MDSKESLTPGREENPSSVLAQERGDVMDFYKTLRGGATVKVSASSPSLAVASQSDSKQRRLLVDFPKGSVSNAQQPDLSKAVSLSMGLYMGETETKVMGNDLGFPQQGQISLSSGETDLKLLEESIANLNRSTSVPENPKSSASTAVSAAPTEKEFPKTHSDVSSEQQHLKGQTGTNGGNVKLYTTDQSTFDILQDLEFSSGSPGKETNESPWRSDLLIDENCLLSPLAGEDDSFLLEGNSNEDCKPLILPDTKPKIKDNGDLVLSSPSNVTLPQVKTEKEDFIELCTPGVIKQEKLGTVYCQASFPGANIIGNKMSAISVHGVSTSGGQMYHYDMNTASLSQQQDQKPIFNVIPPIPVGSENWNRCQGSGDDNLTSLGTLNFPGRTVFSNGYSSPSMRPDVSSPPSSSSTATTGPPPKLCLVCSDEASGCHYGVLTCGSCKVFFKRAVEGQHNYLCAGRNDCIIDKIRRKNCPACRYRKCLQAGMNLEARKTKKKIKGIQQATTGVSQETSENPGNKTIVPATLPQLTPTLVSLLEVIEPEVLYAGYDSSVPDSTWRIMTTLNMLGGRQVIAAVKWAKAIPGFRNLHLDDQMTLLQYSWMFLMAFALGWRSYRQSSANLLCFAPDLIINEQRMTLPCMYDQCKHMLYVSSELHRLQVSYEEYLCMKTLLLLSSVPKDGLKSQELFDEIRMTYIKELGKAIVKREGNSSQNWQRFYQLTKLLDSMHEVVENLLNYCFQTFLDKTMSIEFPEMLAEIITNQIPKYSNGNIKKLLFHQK

Measured: IC50

Tyrosine-protein kinase Lck, sequence (P06239 whole entry): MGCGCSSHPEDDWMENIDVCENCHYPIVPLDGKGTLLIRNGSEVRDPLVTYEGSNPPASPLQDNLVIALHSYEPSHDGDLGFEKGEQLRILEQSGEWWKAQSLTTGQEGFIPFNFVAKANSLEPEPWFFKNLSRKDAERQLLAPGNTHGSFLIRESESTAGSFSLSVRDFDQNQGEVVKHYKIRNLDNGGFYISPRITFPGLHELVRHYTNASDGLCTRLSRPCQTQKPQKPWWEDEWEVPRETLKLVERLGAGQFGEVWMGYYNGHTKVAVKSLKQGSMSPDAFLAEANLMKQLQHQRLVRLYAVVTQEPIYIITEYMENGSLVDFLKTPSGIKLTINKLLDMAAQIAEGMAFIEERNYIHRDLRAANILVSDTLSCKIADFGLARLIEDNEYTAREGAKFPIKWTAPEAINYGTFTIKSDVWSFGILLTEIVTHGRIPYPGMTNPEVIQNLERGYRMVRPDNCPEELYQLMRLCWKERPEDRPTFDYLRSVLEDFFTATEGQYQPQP
Delta-type opioid receptor, sequence (P41143 whole entry): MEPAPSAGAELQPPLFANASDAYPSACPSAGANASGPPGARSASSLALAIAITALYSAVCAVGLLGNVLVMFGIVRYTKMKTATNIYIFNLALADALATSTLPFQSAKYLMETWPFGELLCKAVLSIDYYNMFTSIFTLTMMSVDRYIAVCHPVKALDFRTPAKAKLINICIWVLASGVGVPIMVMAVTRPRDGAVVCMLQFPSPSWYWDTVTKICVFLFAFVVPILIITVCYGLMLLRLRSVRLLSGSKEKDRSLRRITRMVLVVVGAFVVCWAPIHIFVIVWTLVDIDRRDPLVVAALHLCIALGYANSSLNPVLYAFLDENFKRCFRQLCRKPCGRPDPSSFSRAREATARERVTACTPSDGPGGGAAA

O=C(O)CCCc1cccs1
Not Active: [1] | [2] | [3] | [4] | [5] | [6] | [7]

CC(O)COC[C@H]1O[C@@H]2O[C@H]3[C@H](O)[C@@H](O)[C@@H](O[C@H]4[C@H](O)[C@@H](O)[C@@H](O[C@H]5[C@H](O)[C@@H](O)[C@@H](O[C@H]6[C@H](O)[C@@H](O)[C@@H](O[C@H]7[C@H](O)[C@@H](O)[C@@H](O[C@H]8[C@H](O)[C@@H](O)[C@@H](O[C@H]1[C@H](O)[C@H]2O)O[C@@H]8COCC(C)O)O[C@@H]7COCC(C)O)O[C@@H]6COCC(C)O)O[C@@H]5COCC(C)O)O[C@@H]4COCC(C)O)O[C@@H]3COCC(C)O (stereo partly drawn) [2-HYDROXYPROPYL-BETA-CYCLODEXTRIN]
Not Active: [1] | [2] | [3] | [4] | [5] | [6] | [7]

NC(=O)c1cccc(N)c1 [3-AMINOBENZAMIDE]
Not Active: [1] | [2] | [3] | [4] | [5] | [6] | [7]

C[C@H]1O[C@H](O[C@H]2[C@H](O)[C@@H](O)[C@@H](O[C@H]3[C@H](O)[C@@H](O)C(O)O[C@@H]3CO)O[C@@H]2CO)[C@H](O)[C@@H](O)[C@@H]1N[C@H]1C=C(CO)[C@@H](O)[C@H](O)[C@H]1O (stereo partly drawn) [ACARBOSE]
Not Active: [1] | [2] | [3] | [4] | [5] | [6] | [7]

CC[C@H]1[C@@H]2C[C@H]3[C@@H]4N(C)c5ccccc5[C@]45C[C@@H]([C@@H]2[C@H]5O)N3[C@@H]1O [AJMALINE]
Not Active: [1] | [2] | [3] | [4] | [5] | [6] | [7]

NC12CC3CC(CC(C3)C1)C2 [AMANTADINE]
Not Active: [1] | [2] | [3] | [4] | [5] | [6] | [7]

NCCCNCCSP(=O)(O)O [AMIFOSTINE]
Not Active: [1] | [2] | [3] | [4] | [5] | [6] | [7]

CN(C)CCC=C1c2ccccc2CCc2ccccc21 [AMITRIPTYLINE]
Not Active: [1] | [2] | [3] | [4] | [5] | [6] | [7]

CC(=O)Oc1ccccc1C(=O)O [ASPIRIN]
Not Active: [1] | [2] | [3] | [4] | [5] | [6] | [7]
